Measurements reported in PubChem BioAssay (NCI).
Several values for one entry are separate records, joined by “and”; a condition that tells them apart may be missing. Identical values can stand only once.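 These data come from cells grown in 96-well plates and exposed to compound for 48 hours at five concentrations. GI50 marks 50% less growth. TGI is the concentration that stops growth completely.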

Columns and labels:
Test in all cases: NCI-60 cell line screen, 48 h
[1] = tested on: IGROV1 ovarian
[2] = tested on: NCI-H460 lung
[3] = tested on: CCRF-CEM leukemia
[4] = tested on: NCI-H522 lung
[5] = tested on: SF-268 CNS
[6] = tested on: M19-MEL melanoma
[7] = tested on: K-562 leukemia
[8] = tested on: OVCAR-3 ovarian
[9] = tested on: MDA-MB-435
[10] = tested on: DLD-1 colon

Row | SMILES | TGI [1] | GI50 [2] | TGI [2] | GI50 [3] | TGI [3] | TGI [4] | TGI [5] | GI50 [6] | TGI [6] | GI50 [7] | TGI [7] | GI50 [1] | GI50 [4] | GI50 [5] | GI50 [8] | TGI [8] | GI50 [9] | TGI [9] | GI50 [10] | TGI [10]
1 | Clc1ccc2c(c1)[nH]c1c2nc2ccccn21 | 85.8 µM and > 100 µM | 44.3 µM and 17.4 µM | > 100 µM and 35.9 µM | 22.8 µM and 7.18 µM | 71.3 µM and 48.9 µM | 45.6 µM and 39.6 µM | 87.7 µM and 37.1 µM | 42.3 µM and 20.1 µM | > 100 µM and 47.6 µM | 23.9 µM and 3.96 µM | 74.8 µM and 37.3 µM | – | – | – | – | – | – | – | – | –
2 | COc1cc(OCc2cccc(-c3ccc(C(O)c4nccs4)cc3)c2C)cc(OC)c1C=O (centres undefined) | 4.84 µM | 1.09 µM | 10.7 µM | 2.33 µM | 19.9 µM | 6.35 µM | 12.3 µM | – | – | 1.22 µM | 13.6 µM | 0.887 µM | 1.74 µM | 2.92 µM | 1.62 µM | 4.36 µM | 2.22 µM | 6.26 µM | – | –
3 | N.N.N.N.O=C([O-])CCl.O=C([O-])CCl.[Co+3].[O-][Cl+3]([O-])([O-])[O-] | > 100 µM | > 100 µM | > 100 µM | > 100 µM | > 100 µM | > 100 µM | > 100 µM | – | – | > 100 µM | > 100 µM | > 100 µM | > 100 µM | > 100 µM | > 100 µM | > 100 µM | – | – | > 100 µM | > 100 µM
4 | O=C(Nc1ccc2ncccc2c1)Nc1ccc2ncccc2c1 | > 100 µM | – | > 100 µM | – | > 100 µM | > 100 µM | > 100 µM | – | – | – | > 100 µM | – | – | – | – | > 100 µM | – | > 100 µM | – | –
5 | CCC12CCCN(Cc3ccccc3)C1c1c(n(C)c3ccccc13)CC2 (centres undefined) | > 253 µM | – | > 253 µM | – | > 253 µM | 220 µM | > 253 µM | – | > 253 µM | – | > 253 µM | – | – | – | – | 215 µM | – | – | – | > 253 µM
6 | OC(CC1SCCCS1)c1ccccc1 (centres undefined) | > 100 µM | – | > 100 µM | – | > 100 µM | > 100 µM | > 100 µM | – | > 100 µM | – | > 100 µM | – | – | – | – | > 100 µM | – | – | – | > 100 µM
7 | S=C(Nc1ccc(Cl)cc1)Nc1ccc(-c2nc3ccccc3s2)cc1 | 37.9 µM | 13.9 µM | 33.4 µM | 15.6 µM | 54.8 µM | 19.6 µM | 32 µM | – | – | 7.28 µM | 47.2 µM | 16.8 µM | 5.61 µM | 13.8 µM | 9.93 µM | 34.1 µM | 13.4 µM | 29.8 µM | – | –
8 | CC(C)N(C(=O)C12C3C4C1C1C4(C#N)C3C12C#N)C(C)C (centres undefined) | > 100 µM | – | > 100 µM | – | > 100 µM | – | > 100 µM | – | > 100 µM | – | > 100 µM | – | – | – | – | > 100 µM | – | – | – | > 100 µM
9 | COc1ccc2occ(CCC(=O)O)c2c1 | > 100 µM | – | > 100 µM | – | > 100 µM | – | – | – | > 100 µM | – | > 100 µM | – | – | – | – | > 100 µM | – | – | – | > 100 µM
10 | Cc1cn2c(=O)c3ncn(C4OC(CO)C(O)C4O)c3n(C)c2n1 (centres undefined) | > 100 µM | – | > 100 µM | – | > 100 µM | > 100 µM | > 100 µM | – | > 100 µM | – | > 100 µM | – | – | – | – | > 100 µM | – | – | – | > 100 µM
